Tests used:
[1] = system: gray mold pathogen (Botrytis cinerea); assay: Gray mold antimicrobial test (growth inhibition rate); format: cell-based; design: growth inhibition rate, component (II) alone: concentration or dose not given beside the values; details: for growth inhibition rate: Compound 1 (0.25 or 0.063 ppm) alone or mixed with component (II)
Experimental: (Test Example) Gray Mold Antimicrobial Test (Growth Inhibition Rate)
Conidiospores of a gray mold pathogen (Botrytis cinerea) were added to and dispersed in a yeast extract sucrose medium, and a component (I) and a component (II) dissolved in dimethyl sulfoxide at predetermined concentrations were further added and mixed thereto, and the resulting solution was dispensed onto a 96-well microplate and cultivated in the dark at 20° C. for 3 to 5 days. After the cultivation, the turbidity at a wavelength of 405 nm was measured by a microplate reader and compared with that in the untreated case to determine the growth inhibition rate (%) for the gray mold pathogen. The test was duplicately carried out. The results are shown in Tables 3 to 7 together with expected values calculated as follows.
Expected values were calculated by using Colby's equation: E=M+N−MN/100. Here, E denotes an expected value (%) of a growth inhibition rate, M denotes a growth inhibition rate (%) in using a component (I) alone, and N denotes a growth inhibition rate (%) in using a component (II) alone.
If the actually measured growth inhibition rate (%) of a composition of a component (I) and a component (II) is higher than the expected value, E, the composition of a component (I) and a component (II) is said to have exerted synergistic effect.

[2] = system: cucumber powdery mildew pathogen (Sphaerotheca fuliginea); assay: Cucumber powdery mildew control test; format: in vivo; design: scale not given here; details: for control value: Compound 1 0.4 ppm alone or mixed with component (II), sprayed onto cucumber seedlings
Description: (Test Example) Cucumber Powdery Mildew Control Test 1) Preparation of Drug Solution for Test […] The other components (II) were each formulated into an aqueous solution or suspension having a predetermined concentration. 2) Test A mixed solution of a component (I) and a component (II) at a predetermined concentration was sprayed onto cucumber seedlings (variety: “Shimo-shirazu, creeping type”, cotyledon stage). After natural drying at room temperature, conidiospores of a cucumber powdery mildew pathogen (Sphaerotheca fuliginea) were inoculated by blushing off, and the seedlings were kept in a thermostatic room at 20° C. using a 12 hour light/dark cycle for 7 to 10 days. The states of lesion development on leaves were examined by comparing with that for the untreated case, and the control values were determined. The test was duplicately carried out. The results are shown in Tables 8 to 12 together with expected values calculated as follows. Expected values were calculated by using Colby's equation: […] Here, E denotes an expected value of a control value, M denotes a control value in using a component (I) alone, and N denotes a control value in using a component (II) alone. If the actually measured control value of a composition of a component (I) and a component (II) is higher than the expected value, E, the composition of a component (I) and a component (II) is said to have exerted synergistic effect.

[3] = Table 8, ppm or dilution rate: Thiophanate-methyl 1.6, Triflumizole 25, Cyflufenamid 1.6, Iminoctadine acetate 0.25, Iminoctadine albesilate 1, Picarbutrazox 2000, Ipflufenoquin 1, Bacillus subtilis ×250, Pseudomonas rhodesiae ×2000, Sodium hydrogen carbonate 250, Potassium bicarbonate 250, Orange oil 4000, Linalool 4000, Thymol 100, Neem oil 2000, Prothioconazole 1.6, Mancozeb 63, Mineral oil 500
[4] = Table 9, ppm or dilution rate: Thiophanate-methyl 1.6, Triflumizole 25, Cyflufenamid 1.6, Iminoctadine acetate 0.25, Iminoctadine albesilate 1, Picarbutrazox 2000, Ipflufenoquin 1, Bacillus subtilis ×250, Pseudomonas rhodesiae ×2000, Sodium hydrogen carbonate 250, Potassium bicarbonate 250, Orange oil 1000, Linalool 4000, Thymol 100, Neem oil 2000, Prothioconazole 1.6, Mancozeb 63, Mineral oil 500
[5] = Table 10, ppm or dilution rate: Thiophanate-methyl 1.6, Triflumizole 25, Cyflufenamid 1.6, Iminoctadine acetate 0.25, Iminoctadine albesilate 1, Picarbutrazox 2000, Ipflufenoquin 1, Bacillus subtilis ×1000, Pseudomonas rhodesiae ×2000, Sodium hydrogen carbonate 250, Potassium bicarbonate 250, Orange oil 1000, Linalool 4000, Thymol 100, Neem oil 2000, Prothioconazole 1.6, Mancozeb 63, Mineral oil 5
[6] = Table 11, ppm or dilution rate: Thiophanate-methyl 1.6, Triflumizole 25, Cyflufenamid 1.6, Iminoctadine acetate 1, Iminoctadine albesilate 1, Picarbutrazox 2000, Ipflufenoquin 1, Bacillus subtilis ×1000, Pseudomonas rhodesiae ×2000, Sodium hydrogen carbonate 250, Potassium bicarbonate 250, Orange oil 1000, Linalool 4000, Thymol 100, Neem oil 2000, Prothioconazole 1.6, Mancozeb 63, Mineral oil 500
[7] = Table 12, ppm or dilution rate: Thiophanate-methyl 1.6, Triflumizole 25, Cyflufenamid 1.6, Iminoctadine acetate 0.25, Iminoctadine albesilate 1, Picarbutrazox 2000, Ipflufenoquin 1, Bacillus subtilis ×1000, Pseudomonas rhodesiae ×2000, Sodium hydrogen carbonate 1000, Potassium bicarbonate 250, Orange oil 1000, Linalool 4000, Thymol 400, Neem oil 2000, Prothioconazole 1.6, Mancozeb 63, Mineral oil
[8] = Table 3, ppm: Ipflufenoquin 10, Cyflufenamid 10, Thiophamate-methyl 0.4, Iminoctadine acetate 0.08, Iminoctadine albesilate 0.08, Triflumizole 0.0032, Picarbutrazox 0.08, Prothioconazole 0.0032, Mefentrifluconazole 0.00064, Cymoxanil 10, Fludioxonil 0.016, Metyltetraprole 0.4, Florylpicoxamid 0.08, Fluxapyroxad 0.08, Fluopyram 0.4, Potassium phosphite 10, Fipronil 2, Chlorantraniliprole 0.016, Aba
[9] = Table 5, ppm: Ipflufenoquin 10, Cyflufenamid 10, Thiophamate-methyl 0.4, Iminoctadine albesilate 0.4, Picarbutrazox 0.0032, Mefentrifluconazole 0.0006, Cymoxanil 10, Captan 0.0032, Fludioxonil 0.016, Metyltetraprole 10, Florylpicoxamid 0.0001, Fluxapyroxad 0.016, Fluopyram 0.0032, Potassium phosphite 0.08, Fipronil 2, Chlorantraniliprole 0.016, Abamectin 0.4, Sulfoxaflor 0.4, Tebufenozide 10
[10] = Table 6, ppm: Ipflufenoquin 10, Cyflufenamid 0.08, Thiophamate-methyl 2, Triflumizole 0.08, Picarbutrazox 0.0016, Prothioconazole 0.0006, Mefentrifluconazole 0.08, Cymoxanil 0.08, Captan 0.08, Fludioxonil 0.016, Metyltetraprole 10, Florylpicoxamid 0.0006, Fluxapyroxad 0.0032, Fluopyram 0.016, Potassium phosphite 0.016, Fipronil 10, Chlorantraniliprole 0.08, Abamectin 2, Sulfoxaflor 0.08, Tebufenoz
[11] = Table 7, ppm: Ipflufenoquin 0.08, Cyflufenamid 0.08, Thiophamate-methyl 2, Iminoctadine acetate 0.0001, Iminoctadine albesilate 0.4, Triflumizole 0.4, Prothioconazole 0.0032, Mefentrifluconazole 0.08, Cymoxanil 0.08, Captan 0.08, Fludioxonil 0.08, Metyltetraprole 0.0032, Florylpicoxamid 0.0006, Fluxapyroxad 0.016, Fluopyram 0.0032, Potassium phosphite 0.016, Fipronil 2, Chlorantraniliprole 0.016
[12] = Table 4, ppm: Ipflufenoquin 10, Cyflufenamid 2, Thiophamate-methyl 0.4, Iminoctadine acetate 0.08, Iminoctadine albesilate 0.4, Picarbutrazox 10, Prothioconazole 0.0032, Mefentrifluconazole 0.0006, Cymoxanil 10, Fludioxonil 0.016, Metyltetraprole 10, Fluxapyroxad 0.016, Fluopyram 0.4, Potassium phosphite 10, Fipronil 2, Chlorantraniliprole 0.016, Abamectin 0.016, Sulfoxaflor 10, Tebufenozide 0.016

| Compound | control value, component (II) alone [2, 3] | control value, component (II) alone [2, 4] | control value, component (II) alone [2, 5] | control value, component (II) alone [2, 6] | control value, component (II) alone [2, 7] | growth inhibition rate, component (II) alone [1, 8] [%] | growth inhibition rate, component (II) alone [1, 9] [%] | growth inhibition rate, component (II) alone [1, 10] [%] | growth inhibition rate, component (II) alone [1, 11] [%] | growth inhibition rate, component (II) alone [1, 12] [%] | further results |
| --- | --- | --- | --- | --- | --- | --- | --- | --- | --- | --- | --- |
| COc1ccc(F)cc1C(O)Cn1cc(/C(C)=N/OC(C)C)c(=O)n(C[C@@H](NC(=O)C(C)C)C(C)C)c1=O (stereo partly shown) [Compound 1] |  |  |  |  |  |  |  |  |  |  | growth inhibition rate ([1]; Table 3, Examination 2): 52%; growth inhibition rate ([1]; Table 3, Examination 4): 31%; control value ([2]; Table 8, Examination 1): 78; control value ([2]; Table 8, Examination 2): 64; control value ([2]; Table 8, Examination 3): 67; control value ([2]; Table 8, Examination 4): 83; control value ([2]; Table 8, Examination 5): 75; control value ([2]; Table 8, Examination 6): 67 |
| O=C(Cc1ccccc1)N/C(=N\OCC1CC1)c1c(C(F)(F)F)ccc(F)c1F [Cyflufenamid] | 50 | 50 | 50 | 50 | 50 |  |  |  |  |  |  |
| COc1ccnc(C(=O)N[C@@H](C)C(=O)O[C@@H](C)C(c2ccc(F)cc2)c2ccc(F)cc2)c1OC(C)=O [Florylpicoxamid] |  |  |  |  |  | 13 | 0 | 8 | 6 |  |  |
| Cn1cc(C(=O)Nc2ccccc2-c2cc(F)c(F)c(F)c2)c(C(F)F)n1 [Fluxapyroxad] |  |  |  |  |  | 8 | 10 | 10 | 11 | 10 |  |
| C=CC(C)(O)CCC=C(C)C (stereo not shown) [Linalool] | 27 | 27 | 17 | 17 | 27 |  |  |  |  |  |  |
| CC(O)(Cn1cncn1)c1ccc(Oc2ccc(Cl)cc2)cc1C(F)(F)F (stereo not shown) [Mefentrifluconazole] |  |  |  |  |  | 0 | 48 | 37 | 34 | 0 |  |
| Cc1cccc(-n2nnn(C)c2=O)c1COc1ccn(-c2ccc(Cl)cc2)n1 [Metyltetraprole] |  |  |  |  |  | 0 | 33 | 33 | 0 | 52 |  |
| O=C([O-])O.[K+] [Potassium bicarbonate] | 64 | 64 | 17 | 64 | 64 |  |  |  |  |  |  |
| OC(Cc1ccccc1Cl)(Cn1nc[nH]c1=S)C1(Cl)CC1 (stereo not shown) [Prothioconazole] | 50 | 0 | 17 | 0 | 0 |  |  |  |  |  |  |
| O=C([O-])O.[Na+] [Sodium hydrogen carbonate] | 33 | 33 | 33 | 33 | 33 |  |  |  |  |  |  |
| COC(=O)NC(=S)Nc1ccccc1NC(=S)NC(=O)OC [Thiophanate-methyl] | 83 | 83 | 0 | 67 | 17 |  |  |  |  |  |  |
| Cc1ccc(C(C)C)c(O)c1 [Thymol] | 17 | 17 | 17 | 17 | 50 |  |  |  |  |  |  |
| CCCOC/C(=N\c1ccc(Cl)cc1C(F)(F)F)n1ccnc1 [Triflumizole] | 27 | 27 | 27 | 27 | 27 |  |  |  |  |  |  |
| Abamectin |  |  |  |  |  | 0 | 64 | 12 | 0 | 0 |  |
| Mancozeb | 17 | 17 | 17 | 17 | 17 |  |  |  |  |  |  |
| Potassium phosphite |  |  |  |  |  | 0 | 0 | 1 | 12 | 0 |  |
